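Each compound was tested at five concentrations against cells in 96-well plates for 48 hours. TGI: total growth inhibition.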
Legend:
Test in all cases: NCI tumour cell line growth inhibition, 48 h
786-0 renal = tested on: 786-0 renal
ACHN renal = tested on: ACHN renal
EKVX NSCLC = tested on: EKVX NSCLC
HCT-116 colon = tested on: HCT-116 colon
HCT-15 colon = tested on: HCT-15 colon
HOP-62 NSCLC = tested on: HOP-62 NSCLC
HS 578T breast = tested on: HS 578T breast
LOX IMVI melanoma = tested on: LOX IMVI melanoma
M14 melanoma = tested on: M14 melanoma
MCF7 breast = tested on: MCF7 breast
NCI-H226 lung = tested on: NCI-H226 lung
NCI/ADR-RES ovarian = tested on: NCI/ADR-RES ovarian
OVCAR-3 ovarian = tested on: OVCAR-3 ovarian
OVCAR-8 ovarian = tested on: OVCAR-8 ovarian
SN12C renal = tested on: SN12C renal
SR leukemia = tested on: SR leukemia
SW-620 colon = tested on: SW-620 colon
UACC-257 melanoma = tested on: UACC-257 melanoma

Row | Compound | TGI (786-0 renal) [µM] | TGI (ACHN renal) [µM] | TGI (EKVX NSCLC) [µM] | TGI (HCT-116 colon) [µM] | TGI (HCT-15 colon) [µM] | TGI (HOP-62 NSCLC) [µM] | TGI (HS 578T breast) [µM] | TGI (LOX IMVI melanoma) [µM] | TGI (M14 melanoma) [µM] | TGI (MCF7 breast) [µM] | TGI (NCI-H226 lung) [µM] | TGI (NCI/ADR-RES ovarian) [µM] | TGI (OVCAR-3 ovarian) [µM] | TGI (OVCAR-8 ovarian) [µM] | TGI (SN12C renal) [µM] | TGI (SR leukemia) [µM] | TGI (SW-620 colon) [µM] | TGI (UACC-257 melanoma) [µM]
1 | O=C(Nc1sccc1S(=O)(=O)c1ccc(Cl)cc1)C(F)(F)F | > 100 | > 100 | > 100 | 37 | > 100 | > 100 | 72.1 | > 100 | > 100 | > 100 | > 100 | > 100 | > 100 | > 100 | 54.6 | 58.3 | > 100 | > 100
2 | Cc1cc(S(=O)(=O)n2ccnc2Oc2ccccc2)c(SSc2cc(Cl)c(C)cc2S(=O)(=O)n2ccnc2Oc2ccccc2)cc1Cl | > 100 |  | > 100 | > 100 | > 100 |  | 38.6 | > 100 | > 100 | > 100 | > 100 | > 100 | > 100 | > 100 | > 100 | > 100 | > 100 | > 100
3 | CN(C)/C=C(\C(=O)c1ccccc1)n1nc(-c2ccccc2)cc1-c1ccccc1 | > 10 | > 10 | > 10 | > 10 | > 10 | > 10 | > 10 | > 10 | > 10 | > 10 | > 10 | > 10 | > 10 | > 10 | > 10 | > 10 | > 10 | > 10
4 | CN1CCCC1=NC#N | > 100 | > 100 | > 100 | > 100 | > 100 | > 100 | > 100 | > 100 | > 100 | > 100 | > 100 | > 100 | > 100 | > 100 | > 100 | > 100 | > 100 | 
5 | COc1ccc(OC)c(-c2nc3ccccc3c(=O)[nH]2)c1 | > 100 | > 100 | > 100 | > 100 | > 100 | > 100 | > 100 |  | > 100 | > 100 | > 100 | > 100 | > 100 | > 100 | > 100 | > 100 | > 100 | > 100
6 | Cn1c(=O)c2c(nc(N)n2C2OC(CO)C(O)C2O)n(C)c1=O (centres undefined) | > 100 | > 100 | > 100 | > 100 | > 100 | > 100 | > 100 | > 100 | > 100 | > 100 | > 100 | > 100 | > 100 | > 100 | > 100 | > 100 | > 100 | > 100
7 | CC(C)c1c(O[Si](C(C)C)(C(C)C)C(C)C)c2c3c(ccc4c3c1OC4(C)C)C(C)CC2 (centres undefined) | > 100 | > 100 | > 100 | > 100 | > 100 | > 100 | > 100 | > 100 | > 100 | > 100 | > 100 | > 100 | > 100 | > 100 | > 100 | > 100 | > 100 | > 100
8 | CCOC(=O)CCC(NC(=O)c1ccc(Nc2nc3ccccc3n3cccc23)cc1)C(=O)OCC (centres undefined) | 33.2 | 46 | > 100 | > 100 | > 100 | 54.2 | > 100 | > 100 | > 100 | > 100 |  | 48.5 | 44.6 | 77.9 |  | > 100 | > 100 | 72.5
9 | C/C=C/C(C#N)(Cc1ccccc1)OP1(=O)OC(c2ccccc2)C(C)N1C (centres undefined) | > 100 | > 100 | > 100 | > 100 | > 100 | > 100 | > 100 | > 100 | > 100 | > 100 |  | > 100 | > 100 | > 100 | > 100 | > 100 | > 100 | > 100
10 | CN1C(=O)c2c(c3c4ccccc4n(C4OC(CO)C(O)C(O)C4O)c3c3[nH]c4ccccc4c23)C1=O (centres undefined) | 7.31 | 6.45 | 9.09 | 2.88 | 17.4 | 9.51 | 21.6 | 5.49 | 6.13 | 18.7 |  | 49.9 | 5.37 | 4.19 | 9.71 | 1.2 | 16.2 | 7.36
11 | O=C(Cc1ccccc1)NNc1nc(NNC(=O)c2ccncc2)nc(Nc2ccccc2)n1 | > 10 |  | > 10 |  | > 10 | > 10 | > 10 | > 10 | > 10 | > 10 |  | > 10 |  | > 10 | > 10 | > 10 |  | > 10
12 | CSCCCNC(=O)c1csc(-c2csc(CCN)n2)n1 | > 100 | > 100 | > 100 | > 100 | > 100 | > 100 | > 100 | > 100 | > 100 | > 100 |  | > 100 | > 100 | > 100 | > 100 | > 100 | > 100 | > 100
13 | COc1c(C)c(C/C=C(\C)CCCCO)c(OC)c(OC)c1OC | > 100 | > 100 | > 100 | > 100 | > 100 | > 100 | > 100 | 61.2 | > 100 | > 100 |  | > 100 | > 100 | > 100 | > 100 | > 100 | > 100 | > 100
14 | COc1ccc(C2=Nn3c(nc4sc(-c5ccccc5)cc4c3=O)SC2)cc1 | > 100 | > 100 | > 100 | > 100 | > 100 | > 100 | > 100 | > 100 |  | > 100 | > 100 | > 100 | > 100 | > 100 | > 100 | > 100 | > 100 | > 100
15 | O=C1C[C@@H](Sc2ccccc2)C2(OCCO2)[C@H]2ON3CCC[C@@H]3[C@@H]12 | 4.83 | 15.2 |  | 2.99 | 9.7 | 13.8 | 13.1 | 11.8 | 4.58 | 17.2 | 34.5 | 31.2 | 9.15 | 5.57 | 7.52 | 10.4 | 13.5 | 29.3
16 | CC(C)[Si](OC1=C(C(=O)N(C)c2ccccc2Cl)CCCC1)(C(C)C)C(C)C | 34.6 | 29.5 | 28 |  | 31.2 | 34.6 | 30.7 | 30 | 30.2 | 27.2 | 31 | 29.6 | 27.5 | 30.2 |  | 24.1 | 33.3 | 24.1
17 | Cc1cc2c(cc1C)C(=O)C1(C2)Cc2c(ccc(C)c2C)C1=O (centres undefined) | > 100 | > 100 | > 100 | > 100 | > 100 |  | > 100 | > 100 | > 100 | > 100 | > 100 | > 100 | > 100 | > 100 | > 100 | > 100 | > 100 | > 100
18 | O=C(O)c1nc2ccccc2nc1Nc1ccc(F)cc1 | > 100 | > 100 | > 100 | > 100 | 89.8 | > 100 | > 100 | > 100 | > 100 | 74.8 | > 100 | > 100 | 77.5 | > 100 |  | 91.1 | > 100 | > 100
19 | CCCN(CCC)c1cc2c(cc1F)c(=O)c(C(=O)O)cn2-c1ccc(N2CCN(C)CC2)cn1 | 36.8 |  | 34.2 | 28.9 | > 100 | 31.4 | 35.1 | 9.65 | 32.1 | 53.3 | 31.1 | 35.9 | 29.7 | 27.3 | 46 | 35.9 | 48.2 | 36.4
20 | COc1cc2nc(-c3ccccc3F)[nH]c(=O)c2cc1OC | > 100 | > 100 | > 100 | > 100 | > 100 | > 100 | > 100 | > 100 | > 100 | > 100 | > 100 | > 100 | > 100 | > 100 | > 100 | > 100 |  | > 100
21 | CC(=O)c1nc2ccccc2n1CC(=O)c1ccc(Cl)cc1 | 14.1 |  | > 100 | > 100 | > 100 | 25.2 | > 100 | 12.6 | > 100 | > 100 | > 100 | 22.2 | 23.2 | 85.8 | > 100 | > 100 | 44 | > 100
22 | CC(C)(C)OC(=O)NC(Cc1ccc(OCc2ccccc2)cn1)C(=O)NCc1ccccc1 (centres undefined) | > 100 | > 100 | 99.3 | 83.6 | 72.8 | 56.1 | > 100 | 39.4 | 47.8 | 97.9 |  | 48.7 | 43.2 | 82.1 | 64.6 | 30.5 | > 100 | 34.5
23 | COc1ccc(C2CC(c3ccc4ccccc4c3O)=NN2C(C)=O)cc1OC (centres undefined) | > 100 | > 100 |  | > 100 | > 100 | > 100 | > 100 |  | > 100 | > 100 | > 100 | > 100 | > 100 | > 100 | > 100 | > 100 | > 100 | > 100
24 | O=C1CSC(c2ccc(Cl)cc2)N1c1ccc(-c2ccc(-n3c(-c4ccccc4)nc4ccccc4c3=O)cc2)cc1 (centres undefined) | > 100 | > 100 | > 100 | > 100 | > 100 | > 100 | > 100 | 45.2 | > 100 | > 100 |  | 82.5 | > 100 | > 100 | > 100 | > 100 | > 100 | > 100
25 | COCOCC1CCCN1CN1CCC[C@H]1COCOC (some centres undefined) | > 100 | > 100 | > 100 | > 100 | > 100 | > 100 | > 100 |  | > 100 | > 100 | > 100 | > 100 | > 100 | > 100 | > 100 | > 100 | > 100 | > 100
26 | O=C(O)Cc1cccc2c1OC(c1ccccc1)C(C(=O)c1ccccc1)C2=O (centres undefined) | > 100 | > 100 | > 100 | > 100 | > 100 | > 100 | > 100 | > 100 |  | > 100 | > 100 | > 100 | > 100 | > 100 | > 100 | > 100 | > 100 | > 100
27 | CC(C)Oc1ccc(CNC2=NCCO2)c2ccccc12 | 26.4 | 27.7 | 29.2 | 27 | 29.8 | 30.8 | 32 |  | 24.4 | 29.6 | 33 | 31.9 |  | 31.9 | 32.2 | 26.3 | 31.7 | 20

Source: PubChem BioAssay (NCI)
